# In patent publication US20250352555A1, “METHOD OF INCREASING IMMUNE CELL ACTIVATION AND/OR TREATING CANCER USING DIBENZOXAZEPINONES” (VASCULAR THERAPEUTICS PTY LTD, priority 2022, published 2025):
# “And” between values parts separate entries of the source, which are not always exact repeats. Equal entries are not always repeated.
# How the values were obtained:
# [1] = system: MeWo cells; test: Migration assay (scratch), MeWo; type: cell-based, human; settings: 1 μM, 48 h, with greater potency than SCH772984
# Experimental: Migration assays. Cells were grown in medium containing 10% FBS in 6-well plates. The following day the cells were scratched with a sterile toothpick, washed with PBS, and incubated in medium containing 10% FBS and vehicle, BT2 or SCH772984 at 1 μM. At 0, 24 h and 48 h the cells were photographed under a 4× objective using an Olympus CKX41 microscope. To assess the effect of BT2 on melanoma cell migration, A375 and MeWo cells were incubated with 1 μM of BT2 or SCH772984, and A375 and MeWo migration into the denuded zone was quantified after 24 or 48 h, respectively.
# [2] = system: Jurkat T cells; test: RNA-seq of Jurkat T cells; type: cell-based, human
# Experimental: RNA-seq and bioinformatics analysis. Jurkat T cells were grown to confluence in 100 mm plates in complete medium and incubated with 10 μM BT2 or vehicle for 4 h. Total RNA was extracted using the RNeasy Mini Kit (Qiagen, cat. no. 74004) with modification. Briefly, cells were washed twice with pre-cooled 1×PBS and TRIzol reagent (Thermo Fisher Scientific cat. no. 15596026) was added to lyse the cells. Chloroform was added to the mixture before microfuge centrifugation at 13000 rpm for 15 min at 4° C. The upper aqueous layer containing total RNA was transferred to fresh microtubes, and isopropanol was added and loaded into RNeasy columns. Columns were washed with buffers RW1 and RPE. Total RNA was eluted from the column using ribonuclease-free water. Samples were submitted to the UNSW Ramaciotti Centre for Genomics for TruSeq Stranded mRNA-seq preparation and sequencing by One NextSeq 500 1×75 bp high-output flow cell with data output up to 400 M reads. Quality control of samples was set at >80% higher than Q30 at 1×75 bp.
# RNA-seq reads were first assessed for quality using the tool FastQC (v0.11.8) www.bioinformatics.babraham.ac.uk/projects/fastqc/). The tool Salmon was used for quantifying transcript abundance from RNA-seq reads (Patro et al., 2017). The R package DESeq2 that incorporates a method for differential analysis of count data was then used to identify differentially expressed genes across specific comparisons (Love et al., 2014). This package was also used to perform principal component analysis. […] The ggplot2 R package was used to prepare bar plots, scatter plots, and density plots. The pheatmap R package was used to generate distance matrices, and clustered heatmaps. DESeq2 output was used to generate a ranked list for input into GSEA Pre-ranked (v6.0.12, Broad Institute) (Subramanian et al., 2005) for pathway analysis against the Curated (Canonical Pathway), Gene Ontology, and Hallmarks gene collections from MSigDb (Liberzon et al., 2015; Liberzon et al., 2011). Ranked scores were calculated by multiplying the sign of the log 2 fold change by the log 10 transformed adjusted p value. […] All immune response related gene sets were selected for display.
# To gain insights into BT2's mode of action we conducted next generation RNA sequencing (RNA-seq) with extracts of Jurkat T cells exposed to 10 μM BT2 for 4 h.
# [3] = system: inflammation; settings: arthritic mice (Yeh et al., 2021); cited from earlier work
structure (smiles),measurement,setting,value
"CCOC(=O)Nc1ccc2c(c1)C(=O)N(CC)c1ccccc1O2 [BT2, (10-ethyl-11-oxo-10,11-dihydro-dibenzo[b,f][1,4]oxazepin-2-yl)-carbamic acid ethyl ester]",migration into the denuded zone,[1],suppressed melanoma migration
same,"ABCA4 gene expression, BT2","[2]; 10 μM BT2, 4 h, 3 replicates",96.05 and 85.74 and 106.5
same,"ACTA2 gene expression, BT2","[2]; 10 μM BT2, 4 h, 3 replicates",643.6 and 663.2 and 658.1
same,"ACTG2 gene expression, BT2","[2]; 10 μM BT2, 4 h, 3 replicates",3514 and 3448 and 3526
same,"ADAT3 gene expression, BT2 Test 1-3","[2]; 10 μM BT2, 4 h, 3 replicates",32.66 and 24.79 and 20.09
same,"ADCYAP1 gene expression, BT2","[2]; 10 μM BT2, 4 h, 3 replicates",131.6 and 132.2 and 130.6
same,"ARHGAP29 gene expression, BT2","[2]; 10 μM BT2, 4 h, 3 replicates",550.4 and 556.8 and 506.4
same,"ATF3 gene expression, BT2","[2]; 10 μM BT2, 4 h, 3 replicates",975.9 and 937 and 1003
same,"BACH2 gene expression, BT2","[2]; 10 μM BT2, 4 h, 3 replicates",6174.2608 and 6260 and 6009.3283
same,"CD248 gene expression, BT2","[2]; 10 μM BT2, 4 h, 3 replicates",284.3 and 291.3 and 307.4
same,"CREB5 gene expression, BT2","[2]; 10 μM BT2, 4 h, 3 replicates",179.6 and 175.6 and 152.7
same,"DMBT1 gene expression, BT2","[2]; 10 μM BT2, 4 h, 3 replicates",193.1 and 180.8 and 166.8
same,"DUSP8 gene expression, BT2","[2]; 10 μM BT2, 4 h, 3 replicates",826.1 and 821.3 and 847
same,"ENPP1 gene expression, BT2","[2]; 10 μM BT2, 4 h, 3 replicates",2289 and 2283 and 2244
same,"EPAS1 gene expression, BT2","[2]; 10 μM BT2, 4 h, 3 replicates",332.3 and 428.7 and 372.8
same,"FAM166A gene expression, BT2 Test 1-3","[2]; 10 μM BT2, 4 h, 3 replicates",312.2 and 298.5 and 285.3
same,"FERMT2 gene expression, BT2","[2]; 10 μM BT2, 4 h, 3 replicates",3161.0909 and 3299 and 3249
same,"FLNC gene expression, BT2","[2]; 10 μM BT2, 4 h, 3 replicates",532.1 and 474.2 and 510.4
same,"GBP1 gene expression, BT2","[2]; 10 μM BT2, 4 h, 3 replicates",6844 and 6940 and 6949
same,"GBP2 gene expression, BT2","[2]; 10 μM BT2, 4 h, 3 replicates",343.9 and 332.6 and 320.5
same,"HIST1H2AC gene expression, BT2 Test 1-3","[2]; 10 μM BT2, 4 h, 3 replicates",62.43 and 67.15 and 71.34
same,"HIST1H2AG gene expression, BT2 Test 1-3","[2]; 10 μM BT2, 4 h, 3 replicates",51.87 and 40.29 and 74.35
same,"HIST2H2BE gene expression, BT2 Test 1-3","[2]; 10 μM BT2, 4 h, 3 replicates",35.54 and 54.75 and 51.24
same,"IL2RA gene expression, BT2","[2]; 10 μM BT2, 4 h, 3 replicates",168.1 and 193.2 and 169.8
same,"JUN gene expression, BT2","[2]; 10 μM BT2, 4 h, 3 replicates",4079.3537 and 4087 and 4015
same,"JUND gene expression, BT2","[2]; 10 μM BT2, 4 h, 3 replicates",7851.3391 and 7882 and 7703
same,"KCNMB1 gene expression, BT2","[2]; 10 μM BT2, 4 h, 3 replicates",1036.4075 and 994.8 and 1082
same,"MAF gene expression, BT2 Test 1-3","[2]; 10 μM BT2, 4 h, 3 replicates",49.95 and 50.62 and 48.23
same,"MYL4 gene expression, BT2","[2]; 10 μM BT2, 4 h, 3 replicates",896.2 and 889.4 and 904.3
same,"NPAS4 gene expression, BT2","[2]; 10 μM BT2, 4 h, 3 replicates",228.6 and 253.1 and 292.4
same,"NTN1 gene expression, BT2","[2]; 10 μM BT2, 4 h, 3 replicates",0 and 193.2 and 146.7
same,"PRKCE gene expression, BT2","[2]; 10 μM BT2, 4 h, 3 replicates",1433 and 1537 and 1488
same,"PRRT1 gene expression, BT2 Test 1-3","[2]; 10 μM BT2, 4 h, 3 replicates",20.17 and 22.73 and 60.28
same,"SIRPB2 gene expression, BT2","[2]; 10 μM BT2, 4 h, 3 replicates",112.4 and 120.9 and 128.6
same,"SPECC1L-ADORA2A gene expression, BT2","[2]; 10 μM BT2, 4 h, 3 replicates",209.4 and 316.1 and 206
same,"TEAD3 gene expression, BT2","[2]; 10 μM BT2, 4 h, 3 replicates",269.9 and 243.8 and 226.1
same,"TIMP3 gene expression, BT2","[2]; 10 μM BT2, 4 h, 3 replicates",202.7 and 212.8 and 228.1
same,"TUBA1A gene expression, BT2 Test 1-3","[2]; 10 μM BT2, 4 h, 3 replicates",4998 and 5147 and 5169
same,"TUBA1B gene expression, BT2 Test 1-3","[2]; 10 μM BT2, 4 h, 3 replicates",50484.2833 and 49034.778 and 49379.7789
same,"TUBA1C gene expression, BT2 Test 1-3","[2]; 10 μM BT2, 4 h, 3 replicates",9420 and 9004 and 9493
same,"TUBA4A gene expression, BT2 Test 1-3","[2]; 10 μM BT2, 4 h, 3 replicates",33.62 and 39.26 and 48.23
same,"TUBB2A gene expression, BT2 Test 1-3","[2]; 10 μM BT2, 4 h, 3 replicates",599.4 and 644.6 and 638
same,"TUBB3 gene expression, BT2 Test 1-3","[2]; 10 μM BT2, 4 h, 3 replicates",651.2 and 705.6 and 639
same,"TUBB4B gene expression, BT2 Test 1-3","[2]; 10 μM BT2, 4 h, 3 replicates",6034 and 5953 and 6048
same,"ZYX gene expression, BT2","[2]; 10 μM BT2, 4 h, 3 replicates",3059 and 3209 and 3141
same,ABCA4 log2Fold Change,"[2]; 10 μM BT2 vs vehicle, 4 h",2.991
same,ACTA2 log2Fold Change,"[2]; 10 μM BT2 vs vehicle, 4 h",1.228
same,ACTG2 log2Fold Change,"[2]; 10 μM BT2 vs vehicle, 4 h",2.581
same,ADAT3 log2Fold Change,"[2]; 10 μM BT2 vs vehicle, 4 h",−1.31
same,ADCYAP1 log2Fold Change,"[2]; 10 μM BT2 vs vehicle, 4 h",1.242
same,ARHGAP29 log2Fold Change,"[2]; 10 μM BT2 vs vehicle, 4 h",1.497
same,ATF3 log2Fold Change,"[2]; 10 μM BT2 vs vehicle, 4 h",1.019
same,BACH2 log2Fold Change,"[2]; 10 μM BT2 vs vehicle, 4 h",1.126
same,CD248 log2Fold Change,"[2]; 10 μM BT2 vs vehicle, 4 h",2.579
same,CREB5 log2Fold Change,"[2]; 10 μM BT2 vs vehicle, 4 h",1.577
same,DMBT1 log2Fold Change,"[2]; 10 μM BT2 vs vehicle, 4 h",1.424
same,DUSP8 log2Fold Change,"[2]; 10 μM BT2 vs vehicle, 4 h",3.811
same,ENPP1 log2Fold Change,"[2]; 10 μM BT2 vs vehicle, 4 h",2.594
same,EPAS1 log2Fold Change,"[2]; 10 μM BT2 vs vehicle, 4 h",1.187
same,FAM166A log2Fold Change,"[2]; 10 μM BT2 vs vehicle, 4 h",−1.443
same,FERMT2 log2Fold Change,"[2]; 10 μM BT2 vs vehicle, 4 h",1.127
same,FLNC log2Fold Change,"[2]; 10 μM BT2 vs vehicle, 4 h",1.158
same,GBP1 log2Fold Change,"[2]; 10 μM BT2 vs vehicle, 4 h",1.317
same,GBP2 log2Fold Change,"[2]; 10 μM BT2 vs vehicle, 4 h",1.999
same,HIST1H2AC log2Fold Change,"[2]; 10 μM BT2 vs vehicle, 4 h",−1.445
same,HIST1H2AG log2Fold Change,"[2]; 10 μM BT2 vs vehicle, 4 h",−1.417
same,HIST2H2BE log2Fold Change,"[2]; 10 μM BT2 vs vehicle, 4 h",−1.273
same,IL2RA log2Fold Change,"[2]; 10 μM BT2 vs vehicle, 4 h",2.06
same,JUN log2Fold Change,"[2]; 10 μM BT2 vs vehicle, 4 h",2.561
same,JUND log2Fold Change,"[2]; 10 μM BT2 vs vehicle, 4 h",1.29
same,KCNMB1 log2Fold Change,"[2]; 10 μM BT2 vs vehicle, 4 h",1.455
same,MAF log2Fold Change,"[2]; 10 μM BT2 vs vehicle, 4 h",−1.032
same,MYL4 log2Fold Change,"[2]; 10 μM BT2 vs vehicle, 4 h",2.052
same,NPAS4 log2Fold Change,"[2]; 10 μM BT2 vs vehicle, 4 h",1.211
same,NTN1 log2Fold Change,"[2]; 10 μM BT2 vs vehicle, 4 h",6.501
same,PRKCE log2Fold Change,"[2]; 10 μM BT2 vs vehicle, 4 h",1.177
same,PRRT1 log2Fold Change,"[2]; 10 μM BT2 vs vehicle, 4 h",−1.322
same,SIRPB2 log2Fold Change,"[2]; 10 μM BT2 vs vehicle, 4 h",1.912
same,SPECC1L-ADORA2A log2Fold Change,"[2]; 10 μM BT2 vs vehicle, 4 h",1.096
same,TEAD3 log2Fold Change,"[2]; 10 μM BT2 vs vehicle, 4 h",1.133
same,TIMP3 log2Fold Change,"[2]; 10 μM BT2 vs vehicle, 4 h",1.85
same,TUBA1A log2Fold Change,"[2]; 10 μM BT2 vs vehicle, 4 h",−1.19
same,TUBA1B log2Fold Change,"[2]; 10 μM BT2 vs vehicle, 4 h",−1.394
same,TUBA1C log2Fold Change,"[2]; 10 μM BT2 vs vehicle, 4 h",−1.121
same,TUBA4A log2Fold Change,"[2]; 10 μM BT2 vs vehicle, 4 h",−1.253
same,TUBB2A log2Fold Change,"[2]; 10 μM BT2 vs vehicle, 4 h",−1.005
same,TUBB3 log2Fold Change,"[2]; 10 μM BT2 vs vehicle, 4 h",−1.262
same,TUBB4B log2Fold Change,"[2]; 10 μM BT2 vs vehicle, 4 h",−1.52
same,ZYX log2Fold Change,"[2]; 10 μM BT2 vs vehicle, 4 h",1.537
same,effect on FOS like 2 expression,"[2]; 10 μM, 4 h",negligible effects
same,effect on FOSB expression,"[2]; 10 μM, 4 h",negligible effects
same,increase of DUSP8 mRNA expression,"[2]; 10 μM, 4 h",14.1 fold
same,increase of JUND levels,"[2]; 10 μM, 4 h",2.4 fold
same,increase of netrin-1 (NTN1),"[2]; 10 μM, 4 h",90.6 fold
same,inhibition of MAF expression,"[2]; 10 μM, 4 h",2 fold
same,JUN induction,"[2]; 10 μM, within 4 h",5.9 fold
same,anti-inflammatory properties,[3],possesses anti-inflammatory properties
